Measurements: patent US11708344B2, “Flavone derivatives for the treatment and prophylaxis of hepatitis B virus disease” (Hoffmann-La Roche Inc., priority 2018, dated 2023)
Where two headings read alike, the source gives them in different places.

Test system: HBeAg (surrogate marker for cccDNA) in HepDES19 cells
Test: Engineered HepDES19 primary screen assay (HBeAg ELISA)
Type: cell-based, HBV
Text: The assay was employed to screen for novel cccDNA inhibitors. HepDES19 is a cccDNA-producing cell line. In this cell line, HBeAg in the cell culture supernatant as surrogate marker, as HBeAg production depends on cccDNA level and activity. HepDES19 is an engineered cell line which contains a 1.1 unit length HBV genome, and pgRNA transcription from the transgene is controlled by Tetracycline (Tet). In the absence of Tet, pgRNA transcription will be induced, but HBV e antigen (HBeAg) could not be produced from this pgRNA due to very short leader sequence before the HBeAg start codon and the start codon is disrupted. Only after cccDNA is formed, the missing leader sequence and start codon mutation would be restored from the 3′-terminal redundancy of pgRNA, and then HBeAg could be synthesized. Therefore, HBeAg could be used as a surrogate marker for cccDNA (Zhou, T. et al., Antiviral Res. (2006), 72(2), 116-124; Guo, H. et al., J. Virol. (2007), 81(22), 12472-12484).
HepDES19 cells were seeded at 2×10^6 cells per T150 flask and cultured with the culture medium (Dulbecco's Modified Eagle Medium: Nutrient Mixture F-12 [DMEM-F12, Gibco Cat. 11320-82], 10% Fetal Bovine Serum [FBS, Clontech Cat. 631101], 0.1 mM Non-Essential Amino Acids Solution [NEAA, Gibco Cat. 11140-050], 50 μg/mL Penicillin-Streptomycin [PS, Invitrogen Cat. 15140-163], 500 μg/mL Geneticin [G418, Invitrogen Cat. 10131-027]) containing 3 μg/mL Tet (Sigma, Cat. 87128) for 5 days. Cells were then seeded at 4×10^6 cells per T150 in the same culture medium as described above in the absence of Tet for 8 days. Cells were then harvested and frozen at density of 2×10^6 cells per mL. For compound testing, the frozen cells were thawed and seeded into 96-well plates at a density of 6×10^4 cells per well. At 24 hours after seeding, half log serial dilutions of compounds made with Dimethyl sulfoxide (DMSO, Sigma, Cat. D2650) were further diluted with the same culture medium as described above before they were added to the cells to reach desired final compound concentrations and 1% DMSO concentration. Plates were then incubated at 37° C. for another 5 days before measurement of HBeAg level and cell viability. […] HBeAg level were measured with enzyme-linked immunosorbent assay (ELISA) kit (Shanghai Kehua Diagnostic Medical Products Co., Ltd). Cell viability was assessed using Cell Counting Kit-8 (DonJindo, Cat. CK04-20). IC50 values were derived from the dose-response curve using 4 parameter logistic curve fit method.
The compounds of the present invention were tested for their capacity to inhibit extracellular HBeAg level as described herein.

[1] = Hepatitis B virus, HepDES19, 120 h, read-out: IC50 (HBeAg level, HepDES19 primary screen assay), HepDES19 cells, 5 days compound incubation, HBeAg ELISA

## O=c1cc(-c2ccc(-c3nccs3)cc2OCCO[C@H]2C[C@@H](C(=O)O)C2)oc2c(Cl)cccc12 [Example C066-A, Cis-3-[2-[2-(8-chloro-4-oxo-chromen-2-yl)-5-thiazol-2-yl-phenoxy]ethoxy]cyclobutanecarboxylic acid]
[1]
  IC50: 1.02 µM

## O=c1cc(-c2ccc(Br)cc2OCCO[C@H]2C[C@H](C(=O)O)C2)oc2c(Cl)c(F)ccc12 [Example C030-B, Trans-3-[2-[5-bromo-2-(8-chloro-7-fluoro-4-oxo-chromen-2-yl)phenoxy]ethoxy]cyclobutanecarboxylic acid]
[1]
  IC50: 12.8 µM

## CS(=O)(=O)NC(=O)C1CCC(OCCCOc2cc(C(F)(F)F)ccc2-c2cc(=O)c3cccc(Cl)c3o2)C1 (centres unmarked) [Example C124, 3-[3-[2-(8-chloro-4-oxo-chromen-2-yl)-5-(trifluoromethyl)phenoxy]propoxy]-N-methylsulfonyl-cyclopentanecarboxamide]
[1]
  IC50: 2.84 µM

## CCNS(=O)(=O)N[C@@H](COc1cc(C(F)(F)F)ccc1-c1cc(=O)c2cccc(Cl)c2o1)C(=O)OC [Example A098, methyl (2S)-3-[2-(8-chloro-4-oxo-chromen-2-yl)-5-(trifluoromethyl)phenoxy]-2-(ethylsulfamoylamino)propanoate]
[1]
  IC50: 0.036 µM

## COC(=O)CCOc1cc(Cl)c(C)cc1-c1cc(=O)c2cccc(Cl)c2o1 [Example A038, methyl 3-[5-chloro-2-(8-chloro-4-oxo-chromen-2-yl)-4-methyl-phenoxy]propanoate]
[1]
  IC50: 4.79 µM

## O=C(O)c1cccc(COc2cc(Br)ccc2-c2cc(=O)c3cccc(Cl)c3o2)c1 [Example A072, 3-[[5-bromo-2-(8-chloro-4-oxo-chromen-2-yl)phenoxy]methyl]benzoic acid]
[1]
  IC50: 0.366 µM

## COc1ccc2oc(-c3ccccc3OC)cc(=O)c2c1 [Example F-2, 6-methoxy-2-(2-methoxyphenyl)chromen-4-one, reference compound]
[1]
  IC50: > 50 µM

## O=C(O)COc1cc(OC(F)(F)F)ccc1-c1cc(=O)c2cccc(Cl)c2o1 [Example A048, 2-[2-(8-chloro-4-oxo-chromen-2-yl)-5-(trifluoromethoxy)phenoxy]acetic acid]
[1]
  IC50: 9.38 µM

## O=C(O)C1CC(OCCOc2cc(Cl)ccc2-c2cc(=O)c3cccc(Cl)c3o2)C1 (centres unmarked) [Example C004, 3-[2-[5-chloro-2-(8-chloro-4-oxo-chromen-2-yl)phenoxy]ethoxy]cyclobutanecarboxylic acid]
[1]
  IC50: 1.32 µM

## O=c1cc(-c2ccc(Br)cc2O[C@H]2C[C@H](C(=O)O)C2)oc2c(Cl)ccc(O)c12 [Example B036-B, trans-3-[5-bromo-2-(8-chloro-5-hydroxy-4-oxo-chromen-2-yl)phenoxy]cyclobutanecarboxylic acid]
[1]
  IC50: 0.407 µM

## Cc1ccc2c(=O)cc(-c3ccccc3OCCO[C@H]3C[C@@H](C(=O)O)C3)oc2c1Cl [Example C029-A, Cis-3-[2-[2-(8-chloro-7-methyl-4-oxo-chromen-2-yl)phenoxy]ethoxy]cyclobutanecarboxylic acid]
[1]
  IC50: 3.36 µM

## CC(C)(OCCCOc1cc(C(F)(F)F)ccc1-c1cc(=O)c2cccc(Cl)c2o1)C(=O)O [Example C109, 2-[3-[2-(8-chloro-4-oxo-chromen-2-yl)-5-(trifluoromethyl)phenoxy]propoxy]-2-methyl-propanoic acid]
[1]
  IC50: 0.995 µM

## O=C(O)c1ccc(OCCOc2cc(Br)ccc2-c2cc(=O)c3cccc(Cl)c3o2)cc1 [Example C107, 4-[2-[5-bromo-2-(8-chloro-4-oxo-chromen-2-yl)phenoxy]ethoxy]benzoic acid]
[1]
  IC50: 0.991 µM

## O=C(O)C1CC(OCCOc2cnccc2-c2cc(=O)c3cccc(Cl)c3o2)C1 (centres unmarked) [Example C061, 3-[2-[[4-(8-chloro-4-oxo-chromen-2-yl)-3-pyridyl]oxy]ethoxy]cyclobutanecarboxylic acid]
[1]
  IC50: 3.35 µM

## O=c1cc(-c2ccc(C3CC3)cc2O[C@H]2C[C@H](C(=O)O)C2)oc2c(Cl)cccc12 [Example B035-B, trans-3-[2-(8-chloro-4-oxo-chromen-2-yl)-5-cyclopropyl-phenoxy]cyclobutanecarboxylic acid]
[1]
  IC50: 2.02 µM

## CS(=O)(=O)C1CCN(C(=O)COc2cc(C(F)(F)F)ccc2-c2cc(=O)c3cccc(Cl)c3o2)C1 (centres unmarked) [Example A087, 8-chloro-2-[2-[2-(3-methylsulfonylpyrrolidin-1-yl)-2-oxo-ethoxy]-4-(trifluoromethyl)phenyl]chromen-4-one]
[1]
  IC50: 4.98 µM

## COc1cc(OCCO[C@H]2C[C@H](C(=O)O)C2)c(-c2cc(=O)c3cccc(Cl)c3o2)cc1Br [Example C040-B, Trans-3-[2-[4-bromo-2-(8-chloro-4-oxo-chromen-2-yl)-5-methoxy-phenoxy]ethoxy]cyclobutanecarboxylic acid]
[1]
  IC50: 17.1 µM

## O=c1cc(-c2ccc(Br)cc2OCCO[C@H]2C[C@H](C(=O)O)C2)oc2c(Cl)ccc(C(F)(F)F)c12 [Example C049-B]
HepDES19 cells, 5 days compound incubation, HBeAg ELISA, read-out: IC50 (HBeAg level, HepDES19 primary screen assay)
  IC50: 0.103 µM

## O=c1cc(-c2ccc(Br)cc2OCCCO[C@H]2C[C@H](C(=O)O)C2)oc2c(Cl)cccc12 [Example C056-B, Trans-3-[3-[5-bromo-2-(8-chloro-4-oxo-chromen-2-yl)phenoxy]propoxy]cyclobutanecarboxylic acid]
[1]
  IC50: 2.18 µM

## O=C(O)CCOc1cc(Br)c(OC(F)(F)F)cc1-c1cc(=O)c2cccc(Cl)c2o1 [Example A014, 3-[5-bromo-2-(8-chloro-4-oxo-chromen-2-yl)-4-(trifluoromethoxy)phenoxy]propanoic acid]
[1]
  IC50: 3.22 µM

## COc1cc(OCCO[C@H]2C[C@H](C(=O)O)C2)c(-c2cc(=O)c3cccc(Cl)c3o2)cc1C [Example C041-B, Trans-3-[2-[2-(8-chloro-4-oxo-chromen-2-yl)-5-methoxy-4-methyl-phenoxy]ethoxy]cyclobutanecarboxylic acid]
[1]
  IC50: 9.64 µM

## O=C1CCCN1c1ccc(-c2cc(=O)c3cccc(Cl)c3o2)c(OCCO[C@H]2C[C@H](C(=O)O)C2)c1 [Example C063-B, Trans-3-[2-[2-(8-chloro-4-oxo-chromen-2-yl)-5-(2-oxopyrrolidin-1-yl)phenoxy]ethoxy]cyclobutanecarboxylic acid]
[1]
  IC50: 14.9 µM

## O=c1cc(-c2cc(OC(F)(F)F)c(O)cc2OCCO[C@H]2C[C@@H](C(=O)O)C2)oc2c(Cl)cccc12 [Example C090, Cis-3-[2-[2-(8-chloro-4-oxo-chromen-2-yl)-5-hydroxy-4-(trifluoromethoxy)phenoxy]ethoxy]cyclobutanecarboxylic acid]
[1]
  IC50: 6.57 µM

## COc1cccc(S(=O)(=O)N2C[C@@H](Oc3cc(C(F)(F)F)ccc3-c3cc(=O)c4cccc(Cl)c4o3)C[C@H]2C(=O)O)c1 [Example B079]
[1]
  IC50: 1.52 µM

## COc1ccc(-c2cc(=O)c3cccc(Cl)c3o2)c(O[C@H]2C[C@H](C(=O)O)C2)c1 [Example B011-B, Trans-3-[2-(8-chloro-4-oxo-chromen-2-yl)-5-methoxy-phenoxy]cyclobutanecarboxylic acid]
[1]
  IC50: 3.48 µM

## COC(=O)[C@H]1C[C@H](OCCOc2cc(S(C)(=O)=O)ccc2-c2cc(=O)c3cccc(Cl)c3o2)C1 [Example C065-B, Trans-methyl 3-[2-[2-(8-chloro-4-oxo-chromen-2-yl)-5-methylsulfonyl-phenoxy]ethoxy]cyclobutanecarboxylate]
[1]
  IC50: 12.2 µM

## COC(=O)C1CC(OCCOc2cc(N3CCOC3=O)ccc2-c2cc(=O)c3cccc(Cl)c3o2)C1 (centres unmarked) [Example C062a, methyl 3-[2-[2-(8-chloro-4-oxo-chromen-2-yl)-5-(2-oxooxazolidin-3-yl)phenoxy]ethoxy]cyclobutanecarboxylate]
[1]
  IC50: 2.45 µM

## O=C(O)CCOc1cc(OC(F)(F)F)ccc1-c1cc(=O)c2ccc(Br)c(Cl)c2o1 [Example A023, 3-[2-(7-bromo-8-chloro-4-oxo-chromen-2-yl)-5-(trifluoromethoxy)phenoxy]propanoic acid]
[1]
  IC50: 29.6 µM

## O=c1cc(-c2ccc(C3CC3)cc2OCCO[C@H]2C[C@H](C(=O)O)C2)oc2c(Cl)cccc12 [Example C069-B, Trans-3-[2-[2-(8-chloro-4-oxo-chromen-2-yl)-5-cyclopropyl-phenoxy]ethoxy]cyclobutanecarboxylic acid]
[1]
  IC50: 1.29 µM
